Reference: US20170362292A1, “S-Alkylated Hepcidin Peptides and Methods of Making and Using Thereof” (priority 2014, published 2017)
Where two headings read alike, the source gives them in different places.

Legend:
[1] = molecular target: T1, human ferroportin-GFP (Homo sapiens, UniProt Q9NP59); assay: cellular assay based on Fpn degradation (HEK293:TREX-Fpn-GFP cells, flow cytometry); type: cell-based
T1 sequence (Q9NP59 1-571): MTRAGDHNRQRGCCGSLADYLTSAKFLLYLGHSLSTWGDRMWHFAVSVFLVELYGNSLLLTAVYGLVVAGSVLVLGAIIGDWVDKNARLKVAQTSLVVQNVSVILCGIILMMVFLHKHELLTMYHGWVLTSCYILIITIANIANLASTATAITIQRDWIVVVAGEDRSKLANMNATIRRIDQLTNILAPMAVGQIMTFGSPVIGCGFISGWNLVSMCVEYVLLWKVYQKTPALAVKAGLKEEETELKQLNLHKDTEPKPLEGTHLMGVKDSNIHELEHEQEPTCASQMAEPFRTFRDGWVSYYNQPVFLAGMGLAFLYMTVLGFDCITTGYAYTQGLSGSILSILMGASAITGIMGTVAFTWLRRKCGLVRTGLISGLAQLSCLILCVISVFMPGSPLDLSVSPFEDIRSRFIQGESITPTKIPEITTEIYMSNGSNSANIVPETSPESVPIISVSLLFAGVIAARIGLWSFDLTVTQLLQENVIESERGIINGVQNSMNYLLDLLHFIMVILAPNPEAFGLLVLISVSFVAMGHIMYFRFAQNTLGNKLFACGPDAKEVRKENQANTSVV
Method: The S-alkylated hepcidin peptides were tested in vitro using a previously described cellular assay based on Fpn degradation. See e.g., Nemeth, et al. (2006) Blood 107: 328. Briefly, HEK293:TREX-Fpn-GFP, a cell line stably transfected with the human ferroportin-GFP construct under the control of doxycycline-inducible promoter, was plated on poly-D-lysine-coated plates in the presence of 20 μM FAC. Fpn expression was induced with 500 ng/mL doxycycline treatment for 24 hours. Then, doxycycline was washed off, and cells were treated with peptides for 24 hours. Cells were then trypsinized and resuspended at 1×10^6 cells/mL, and the intensity of green fluorescence was analyzed by flow cytometry using FAC Scan (fluorescence activated cell scanner) Analytic Flow Cytometer (Becton Dickinson, San Jose, Calif.) with CellQuest version 3.3 software. Cells not induced with doxycycline to express Fpn-GFP were used to establish a gate to exclude background fluorescence. Cells induced with doxycycline, but not treated with any peptides, were used as the positive control. Each peptide treatment was repeated independently 3 to 6 times. […] Hydrophobicity may also play a role, as activity increases in the carboxy-esters-substituent(s) order: —CH3<—C2H5<—C4H9 (PR73 SC<PR73 SB<PR73 SA).
In vitro activity may be measured by the dose-dependent loss of fluorescence of cells engineered to display ferroportin fused to green fluorescent protein as in Nemeth et al. (2006) Blood 107:328-33.

[2] = serum iron in C57BL/6 mice after intraperitoneal peptide injection; type: in vivo; details: 50-100 nmoles/mouse, vs PBS-injected mice
Method: Based on in vitro results, PR73SH was selected as a suitable candidate for animal studies, which were carried out as previously described. See Preza, et al. (2011) J. Clin. Invest. 121:4880; Ramos, et al. (2012) Blood 120:3829; and Nemeth, et al. (2006) Blood 107:328. Animal studies were approved by the Animal Research Committee at UCLA. Briefly, C57BL/6 mice were obtained from The Jackson Laboratory (Bar Harbor, Me.) and were maintained on NIH 31 rodent diet (iron content 336 mg/kg; Harlan Teklad, Indianapolis, […]). Mice were injected intraperitoneally either with 100 μL PBS (control) or with 50 or 100 nmoles peptide in 100 μL PBS. Mice were killed 6, 24, and 48 hours later, blood was collected by cardiac puncture, and serum was separated using Microtainer tubes (Becton Dickinson, Franklin Lakes, N.J.). Serum iron was determined by using a colorimetric assay (Diagnostic Chemicals, Oxford, Conn.), which was modified for the microplate format so that 50 μL serum was used per measurement. See Nemeth, et al. (2004) J. Clin. Invest. 113(9): 1271-1276. The results were expressed as the percentage of decrease in serum iron when compared with the average value of serum iron levels in PBS-injected mice.
In vivo activity of PR73SH and PR73 was compared by assaying serum iron levels at 3 time points: (6, 24, and 48 hours) and concentrations that were previously shown to be sufficient for PR73 to exert potent bioactivity (50-100 nmoles/mouse).

[3] = storage stability in DMSO (LC/MS/MS); type: physicochemical; details: 10 mM solution, room temperature, 30 days
Text: Thus, the present invention also provides storage stable compositions comprising one or more S-alkylated hepcidin peptides.

[4] = peptide treatment 24 hours, loss of GFP fluorescence relative to Hep25, read-out: EC50 [nM] TREX-hFpn-GFP cells

## CCCCCCCCCCCCCCCCNC(=O)CN(CC(N)=O)C(=O)CCCCCNC(=O)C[C@H](Cc1ccccc1)NC(=O)[C@H](CCCNC(=N)N)NC(=O)[C@H](CS)NC(=O)[C@H](CCCNC(=N)N)NC(=O)C[C@@H]1CCCN1C(=O)[C@@H](NC(=O)[C@H](Cc1c[nH]cn1)NC(=O)[C@@H](NC(=O)CNCC(=O)O)[C@@H](C)O)C(c1ccccc1)c1ccccc1 [PR73, reference compound]
[1]; [4]
  EC50: 4.2 ± 0.3 nM
[2]; 6 hour time point
  serum iron: decreased serum iron
[2]; 24 hour time point
  serum iron: decreased serum iron

## CCCCCCCCCCCCCCCCNC(=O)CN(CC(N)=O)C(=O)CCCCCNC(=O)C[C@H](Cc1ccccc1)NC(=O)[C@H](CCCNC(=N)N)NC(=O)[C@H](CSC(=CC(=O)OCC)C(=O)OCC)NC(=O)[C@H](CCCNC(=N)N)NC(=O)C[C@@H]1CCCN1C(=O)[C@@H](NC(=O)[C@H](Cc1c[nH]cn1)NC(=O)[C@@H](NC(=O)CNCC(=O)O)[C@@H](C)O)C(c1ccccc1)c1ccccc1 [PR73SB]
[1]; [4]
  DC50: 10.4 ± 1.2 nM

## CCCCCCCCCCCCCCCCNC(=O)CN(CC(N)=O)C(=O)CCCCCNC(=O)C[C@H](Cc1ccccc1)NC(=O)[C@H](CCCNC(=N)N)NC(=O)[C@H](CSC(=CC(=O)OC)C(=O)OC)NC(=O)[C@H](CCCNC(=N)N)NC(=O)C[C@@H]1CCCN1C(=O)[C@@H](NC(=O)[C@H](Cc1c[nH]cn1)NC(=O)[C@@H](NC(=O)CNCC(=O)O)[C@@H](C)O)C(c1ccccc1)c1ccccc1 [PR73SC]
[1]; [4]
  DC50: 12.6 ± 1.8 nM

## CCCCCCCCCCCCCCCCNC(=O)CN(CC(N)=O)C(=O)CCCCCNC(=O)C[C@H](Cc1ccccc1)NC(=O)[C@H](CCCNC(=N)N)NC(=O)[C@H](CSC=CC(=O)O)NC(=O)[C@H](CCCNC(=N)N)NC(=O)C[C@@H]1CCCN1C(=O)[C@@H](NC(=O)[C@H](Cc1c[nH]cn1)NC(=O)[C@@H](NC(=O)CNCC(=O)O)[C@@H](C)O)C(c1ccccc1)c1ccccc1 [PR73SD]
[1]; [4]
  DC50: 218 ± 13.4 nM

## CCCCCCCCCCCCCCCCNC(=O)CN(CC(N)=O)C(=O)CCCCCNC(=O)C[C@H](Cc1ccccc1)NC(=O)[C@H](CCCNC(=N)N)NC(=O)[C@H](CSC(=CS(=O)(=O)C(C)(C)C)S(=O)(=O)C(C)(C)C)NC(=O)[C@H](CCCNC(=N)N)NC(=O)C[C@@H]1CCCN1C(=O)[C@@H](NC(=O)[C@H](Cc1c[nH]cn1)NC(=O)[C@@H](NC(=O)CNCC(=O)O)[C@@H](C)O)C(c1ccccc1)c1ccccc1 [PR73SF]
[1]; [4]
  DC50: 10 ± 3.4 nM

## CCCCCCCCCCCCCCCCNC(=O)CN(CC(N)=O)C(=O)CCCCCNC(=O)C[C@H](Cc1ccccc1)NC(=O)[C@H](CCCNC(=N)N)NC(=O)[C@H](CSC(=CC(N)=O)C(N)=O)NC(=O)[C@H](CCCNC(=N)N)NC(=O)C[C@@H]1CCCN1C(=O)[C@@H](NC(=O)[C@H](Cc1c[nH]cn1)NC(=O)[C@@H](NC(=O)CNCC(=O)O)[C@@H](C)O)C(c1ccccc1)c1ccccc1 [PR73SG]
[1]; [4]
  DC50: 8.4 ± 2.5 nM

## CCCCCCCCCCCCCCCCNC(=O)CN(CC(N)=O)C(=O)CCCCCNC(=O)C[C@H](Cc1ccccc1)NC(=O)[C@H](CCCNC(=N)N)NC(=O)[C@H](CSC(=CP(=O)(OCC)OCC)P(=O)(OCC)OCC)NC(=O)[C@H](CCCNC(=N)N)NC(=O)C[C@@H]1CCCN1C(=O)[C@@H](NC(=O)[C@H](Cc1c[nH]cn1)NC(=O)[C@@H](NC(=O)CNCC(=O)O)[C@@H](C)O)C(c1ccccc1)c1ccccc1 [PR73SH]
[1]; read-out: EC50 [nM] TREX-hFpn-GFP cells, peptide treatment 24 hours, loss of GFP fluorescence relative to Hep25
  DC50: 1.1 ± 0.1 nM
[3]
  stability: 99.5±0.5%
[2]; 6 hour time point
  serum iron: decreased serum iron
[2]; 24 hour time point
  serum iron: decreased serum iron
